Here are results for five compounds from patent USRE39707E1, “Camptothecin derivatives” (Catholic Healthcare West, priority 2001, dated 2007).

The subject of data set [1] is VM46. Briefly: Cell colony formation assay, VM46 cells. In kind it is cell-based. As to conditions: 72 hours drug exposure. How it is done: (§1) This example provides directions for growing cells and testing compounds of the invention for their effect on the growth of the cells. All cells were purchased from DCIDC Tumor Repository, NCI, NIH.
(§2) Four hundred cells (HCT 116, PC-3, NCI/ADR-RES: human breast cancer cells) or five hundred cells (VM46) were plated in 60 mm Petri dishes containing 2.7 ml of medium (modified McCoy's 5a medium) containing 10% fetal bovine serum and 100 units/ml penicillin and 100 mg/ml streptomycin. The cells were incubated in a CO2 incubator at 37° C. for 5 hours for attachment to the bottom of Petri dishes. Drugs were made fresh in medium at ten times the final concentration, and then 0.3 ml of this stock solution was added to the 2.7 ml of medium in the dish. The cells were then incubated with drugs for 72 hours at 37° C. At the end of the incubation the drug-containing media were decanted, the dishes were rinsed with 4 ml of Hank's Balance Salt Solution (HBSS), 5 ml of fresh medium was added, and the dishes were returned to the incubator for colony formation. The cell colonies were counted using colony counter after incubation for 7 days for HCT116 cells and PC-3 cells and 8 days for VM46 cells, respectively.
(§3) Values of ID50 (the drug concentration producing 50% inhibition of colony formation) may be determined for each tested compound. The directions described in this example may be used in other cells, such as DU-145.

For data set [2], the system named is PC-3. The data set is described as follows: Cell colony formation assay, PC-3 cells. In kind it is cell-based, human. As to conditions: 72 hours drug exposure. The method, then: as §1, §2, §3
Data set [3] deals with HCT116. Briefly: Cell colony formation assay, HCT116 cells. Particulars: 72 hours drug exposure. It is filed as cell-based, human. The method, then: as §1
as §2, with “The” for “Four hundred cells (HCT 116, PC-3, NCI/ADR-RES: human breast cancer cells) or five hundred cells (VM46) were plated in 60 mm Petri dishes containing 2.7 ml of medium (modified McCoy's 5a medium) containing 10% fetal bovine serum and 100 units/ml penicillin and 100 mg/ml streptomycin. The”

The subject of data set [4] is C3H/HeJ mice. Particulars: maximum tolerated dose at day 40, C3H/HeJ mice. The method, then:
This example provides directions for performing in vivo toxicity tests of the compounds of the invention on C3H/HeJ mice.
Acute toxicities of the compounds of this invention are evaluated on C3H/HeJ mice (body weight 18-22 g). The MTD40 (maximum tolerated dose at day 40) values were determined by the standard procedure described by Gad and Chengelis (see, for example, “Acute Toxicology Testing,” 2nd Ed., Shayne O. Gad and Christopher P. Chengelis, pp. 186-195 (Academic Press)). In the consecutive type studies, 2 mice were dosed at low and moderate doses of 40 and 100 mg/kg. If no severe and irreversible toxicity (euthanasia is required) occurs at these doses, a new pair of animals was initiated at 180 mg/kg, which is 1.8 times higher than 100 mg/kg. Sequential dosages (about 3 doses on 3 pairs of animals, i.e. 2 mice for each drug dose) were increased by a factor of 1.8 until severe and irreversible toxicity (euthanasia is required) occurred. Then another pair of animals was initiated at the highest nonlethal dosage, and successive dosages were increased by a factor of 1.15. The result of this exercise was two dosages, one apparently nonlethal and the other lethal if severe and irreversible toxicity occurs and euthanasia is required, separated by a factor of 1.15. Six mice were dosed at each dosage. If no severe and irreversible toxicity occurred at the lower dosage and at least one with severe and irreversible toxicity occurred at the higher dose, then the lower dose was considered to be the MTD. The compounds of this invention were administered to C3H/HeJ mice by intraperitoneal injection. Drug toxicity was evaluated on mice checked daily for 45 days.

Data set [5] relates to MTG-B mouse mammary Adenocarcinoma. Briefly: In vivo efficacy in C3H/HeJ mice bearing MTG-B tumors. As to conditions: for T (Surviving days after treatment of MTG-B mouse mammary Adenocarcinoma In C3H/Hej mice): i.p., control mice survived 6 days; for CD/Taxol: ratio of extra days of survival with compound to extra days of survival with taxol, each compared to control; for T/C %: surviving days treated / surviving days control x 100%, control 6 days. The method, then: This example provides directions for performing in vivo efficacy tests of the compounds of the invention on C3H/HeJ mice bearing MTG-B tumors.
Studies on the compounds of this invention were performed on C3H/HeJ mice bearing […] tumors. […] Treatment was initiated at that time, with the first day of treatment designated as day 0 for calculation and plots. The mice were injected i.p. with thee drug dose levels (⅓, ½, 1×MTD) using both a single injection and the schedule of Q2D×3 (every 2 days for a total of 3 treatments at ⅓ MTD). Control groups of mice bearing 8 mm diameter tumors were treated with vehicle alone. […] When a tumor reached 1.5 g, the mouse bearing the tumor was euthanized. Surviving days measured from day 0 for mice treated with anticancer drugs (T) and surviving days measured from day 0 for control mice (C) were recorded. Tumor growth inhibition values (T/C %) were calculated using the formula T/C %=(surviving days of mice treated with an anticancer drug T/surviving days of control mice C)×100%, as shown in Table II.
The final right-hand column in Table II provides a ratio of the extra days of survival of mice treated with the compounds of the invention (compared to control) to the extra days of survival of mice treated with taxol (compared to control).

As to `CCC1(OC(=O)COc2ccc(Cl)cc2C)C(=O)OCc2c1cc1n(c2=O)Cc2cc3ccccc3nc2-1` (stereo not shown) [Example 000127, Camptothecin-20-O-ester of 4-chloro-2-methylphenoxyacetic acid], the “In vitro efficacy: Survival (%) of cells line VM46” value in data set [1] (1 nM) amounted to 47.33%; in data set [1] (10 nM), 0%. Further, the entries for the “In vitro efficacy: Survival (%) of cells line PC-3” value in data set [2] (1 nM) and in data set [2] (5 nM) were 88.97% and 31.46%, respectively. The results for the “In Vitro Efficacy: Survival (%) of HCT116” value in data set [3] (1 nM), in data set [3] (10 nM) and in data set [3] (100 nM) were 86.48%, 0% and 0%, respectively. Besides, the “In Vivo Toxicity MTD40 (ip, mg/kg) in C3H/Hej Mice” value in data set [4] was above 150 mg/kg. In addition, in data set [5], the “T (Surviving days after treatment of MTG-B mouse mammary Adenocarcinoma In C3H/Hej mice)” value is recorded as 13 days. Further, the CD/Taxol in data set [5] came to 2.3. For the same compound, the T/C % in data set [5] was determined as 217%.

Regarding `CCC1(OC(=O)COc2ccc3c(C)c(Cl)c(=O)oc3c2)C(=O)OCc2c1cc1n(c2=O)Cc2cc3ccccc3nc2-1` (stereo not shown) [Example 000129], the “In vitro efficacy: Survival (%) of cells line VM46” value in data set [1] (1 nM) came out at 28.15%; in data set [1] (10 nM) it was 0%. The “In vitro efficacy: Survival (%) of cells line PC-3” value in data set [2] (1 nM) is recorded as 88.04%; in data set [2] (5 nM), 10.31%. Further, the results for the “In Vitro Efficacy: Survival (%) of HCT116” value in data set [3] (1 nM), in data set [3] (10 nM) and in data set [3] (100 nM) were 74.73%, 0% and 0%, respectively. Besides, the “In Vivo Toxicity MTD40 (ip, mg/kg) in C3H/Hej Mice” value in data set [4] stood at 75 mg/kg. Besides, the “T (Surviving days after treatment of MTG-B mouse mammary Adenocarcinoma In C3H/Hej mice)” value in data set [5] was determined as 12 days. Further, the CD/Taxol in data set [5] was determined as 2.0. The compound also yielded a T/C % in data set [5] of 200%.

Consider `CCC1(OC(=O)COc2ccc3ccccc3c2)C(=O)OCc2c1cc1n(c2=O)Cc2cc3ccccc3nc2-1` (stereo not shown) [Example 000224, Camptothecin-20-O-ester of 2-napthoxyacetic acid], for which the “In vitro efficacy: Survival (%) of cells line VM46” value was found to be 62.69% in data set [1] (1 nM) and 0% in data set [1] (10 nM). In addition, the “In vitro efficacy: Survival (%) of cells line PC-3” value came to 87.34% in data set [2] (1 nM) and 37.98% in data set [2] (5 nM). Also, the “In Vitro Efficacy: Survival (%) of HCT116” value in data set [3] (1 nM) was found to be 100%; in data set [3] (10 nM) it was 0%; in data set [3] (100 nM), 0%. Further, the “In Vivo Toxicity MTD40 (ip, mg/kg) in C3H/Hej Mice” value in data set [4] was above 150 mg/kg. For the same compound, in data set [5], the “T (Surviving days after treatment of MTG-B mouse mammary Adenocarcinoma In C3H/Hej mice)” value was 7 days. In data set [5], the CD/Taxol entry is listed as “.3”. Also, the T/C % in data set [5] is on record as 117%.

As to `CCC1(OC(=O)COc2ccc(OCc3ccccc3)cc2)C(=O)OCc2c1cc1n(c2=O)Cc2cc3ccccc3nc2-1` (stereo not shown) [Example 000425, Camptothecin-20-O-ester of 4-benzyloxyphenoxyacetic acid], the entries for the “In vitro efficacy: Survival (%) of cells line VM46” value in data set [1] (1 nM) and in data set [1] (10 nM) were 80.46% and 0%, respectively. The “In vitro efficacy: Survival (%) of cells line PC-3” value is on record as 99.28% in data set [2] (1 nM) and 71.61% in data set [2] (5 nM). Further, the entries for the “In Vitro Efficacy: Survival (%) of HCT116” value in data set [3] (1 nM), in data set [3] (10 nM) and in data set [3] (100 nM) were 100%, 0% and 0%, respectively. In addition, in data set [4], the “In Vivo Toxicity MTD40 (ip, mg/kg) in C3H/Hej Mice” value is reported as below 150 mg/kg.

For the compound `CCC1(OC(=O)COc2cccc(CBr)c2)C(=O)OCc2c1cc1n(c2=O)Cc2cc3ccccc3nc2-1` (stereo not shown) [Example 000501, Camptothecin-20-O-ester of 3-bromomethylphenoxyacetic acid], the figures for the “In vitro efficacy: Survival (%) of cells line VM46” value in data set [1] (1 nM) and in data set [1] (10 nM) were 86.60% and 0%, respectively. Further, the “In vitro efficacy: Survival (%) of cells line PC-3” value was found to be 96.02% in data set [2] (1 nM) and 41.77% in data set [2] (5 nM). The “In Vitro Efficacy: Survival (%) of HCT116” value in data set [3] (1 nM) was determined as 100%; in data set [3] (10 nM), 0%; in data set [3] (100 nM), 0%. For the same compound, the “In Vivo Toxicity MTD40 (ip, mg/kg) in C3H/Hej Mice” value in data set [4] is reported as below 150 mg/kg.
